One assay deals with human JAK2 (Homo sapiens (Human), UniProt O60674). Particulars: read-out: JAK2 IC50.
The next assay concerns the target human FAK (Homo sapiens (Human), UniProt Q05397). The conditions noted are these: read-out: FAK IC50.

This is an account of results in patent US8501936B2 (priority 2009, dated 2013).

Sequence of human JAK2 (O60674 815-1132): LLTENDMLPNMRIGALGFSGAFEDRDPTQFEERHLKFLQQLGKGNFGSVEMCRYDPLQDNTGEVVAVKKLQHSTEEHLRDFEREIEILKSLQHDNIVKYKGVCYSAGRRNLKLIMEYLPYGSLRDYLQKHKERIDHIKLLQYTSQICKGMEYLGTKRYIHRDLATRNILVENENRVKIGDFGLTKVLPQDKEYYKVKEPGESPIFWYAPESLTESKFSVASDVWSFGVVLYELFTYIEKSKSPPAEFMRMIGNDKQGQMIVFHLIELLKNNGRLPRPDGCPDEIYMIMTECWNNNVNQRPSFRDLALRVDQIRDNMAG
Sequence of human FAK (Q05397 whole entry): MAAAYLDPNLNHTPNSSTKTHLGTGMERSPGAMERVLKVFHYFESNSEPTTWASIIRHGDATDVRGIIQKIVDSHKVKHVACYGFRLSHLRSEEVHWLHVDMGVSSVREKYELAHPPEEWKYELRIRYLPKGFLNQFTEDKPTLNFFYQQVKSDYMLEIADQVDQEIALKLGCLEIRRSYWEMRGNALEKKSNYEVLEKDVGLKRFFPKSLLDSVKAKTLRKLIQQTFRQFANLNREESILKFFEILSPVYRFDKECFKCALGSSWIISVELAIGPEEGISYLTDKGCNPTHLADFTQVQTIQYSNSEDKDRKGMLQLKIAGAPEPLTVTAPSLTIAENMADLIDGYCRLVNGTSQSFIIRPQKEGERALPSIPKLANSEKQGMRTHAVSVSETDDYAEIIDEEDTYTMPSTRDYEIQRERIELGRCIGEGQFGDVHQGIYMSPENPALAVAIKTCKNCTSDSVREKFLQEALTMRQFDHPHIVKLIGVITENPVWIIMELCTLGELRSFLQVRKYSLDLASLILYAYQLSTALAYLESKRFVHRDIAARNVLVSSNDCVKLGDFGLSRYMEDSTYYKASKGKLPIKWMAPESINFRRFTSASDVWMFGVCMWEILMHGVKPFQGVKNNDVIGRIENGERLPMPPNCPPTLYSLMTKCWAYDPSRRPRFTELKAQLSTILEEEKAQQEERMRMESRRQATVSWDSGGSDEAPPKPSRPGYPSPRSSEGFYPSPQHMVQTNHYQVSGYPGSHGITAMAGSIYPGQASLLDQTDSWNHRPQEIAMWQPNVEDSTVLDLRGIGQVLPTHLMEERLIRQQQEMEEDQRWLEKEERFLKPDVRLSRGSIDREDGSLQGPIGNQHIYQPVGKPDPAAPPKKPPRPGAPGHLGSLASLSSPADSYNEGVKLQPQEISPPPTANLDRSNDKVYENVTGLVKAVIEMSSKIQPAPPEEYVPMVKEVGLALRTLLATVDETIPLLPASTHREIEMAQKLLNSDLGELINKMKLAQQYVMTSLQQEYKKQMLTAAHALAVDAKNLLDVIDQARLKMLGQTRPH
Protocol for human FAK: The ability of compounds to inhibit the kinase activity of baculovirus-expressed human FAK and PYK2 was measured using the 96-well plate TRF assay system described above for JAK2. […] For the FAK kinase assay, the reaction mixture (total volume=100 μL/well) contained 20 mM HEPES (pH 7.2), 10 μM ATP, 5 mM MgCl2, 0.5 mM DTT, 0.1% BSA, and test compound (diluted in DMSO; 2.5% DMSO final in assay). For PYK2, the 100 μL assay solution consisted of 20 mM HEPES (pH 7.2), 3 μM ATP, 5 mM MnCl2, 0.1% BSA, and test compound (diluted in DMSO; 2.5% DMSO final in assay). Enzyme (10 ng/mL FAK or 25 ng/mL PYK2) was added and the reaction was allowed to proceed at room temperature for 30 min. Detection of the phosphorylated product was performed by adding 100 μL/well of Eu—N1 labeled PY100 antibody diluted 1:75000 in 0.25% BSA in TBS-T (PerkinElmer #AD0041). […] Inhibition data were analyzed using ActivityBase and IC50 curves generated using XLFit.

Regarding `CS(=O)(=O)c1ccc(-c2cccn3nc(NCc4ccccn4)nc23)cc1` [Example 409, [8-(4-Methanesulfonyl-phenyl)-[1,2,4]triazolo[1,5-a]pyridin-2-yl]-pyridin-2-ylmethyl-amine], the IC50 came to 6500 nM on human JAK2 and 10000 nM at human FAK.

Take `COc1ccc(C(F)(F)F)cc1-c1cccn2nc(Nc3ccc4c(c3)CCNC4)nc12` [Example 337, [8-(2-Methoxy-5-trifluoromethyl-phenyl)-[1,2,4]triazolo[1,5-a]pyridine-2-yl]-(1,2,3,4-tetrahydro-isoquinolin-6-yl)-amine]: the IC50 worked out at 41.9 nM on human JAK2 and 778 nM on human FAK.

`CS(=O)(=O)c1ccc(-c2cccn3nc(Nc4cccc(N5CCN(CCO)CC5)c4)nc23)cc1` [Example 152, 2-(4-{3-[8-(4-Methanesulfonyl-phenyl)-[1,2,4]triazolo[1,5-a]pyridin-2-ylamino]-phenyl}-piperazin-1-yl)-ethanol]: the IC50 stood at 2.37 nM at human JAK2 and 999 nM at human FAK.

As to `CN(c1ccccc1CNc1cccn2nc(Nc3ccc(OCCN4CCCC4)cc3)nc12)S(C)(=O)=O` [Example 150, N-Methyl-N-[2-({2-[4-(2-pyrrolidin-1-yl-ethoxy)-phenylamino]-[1,2,4]triazolo[1,5-a]pyridin-8-ylamino}-methyl)-phenyl]-methanesulfonamide], the IC50 on human JAK2 came to 43.7 nM; on human FAK, 13 nM.

In the case of `CN1CCN(c2cccc(Nc3nc4c(Nc5cccc(S(C)(=O)=O)c5)cccn4n3)c2)CC1` [Example 110, N(8)-(3-Methanesulfonyl-phenyl)-N(2)-[3-(4-methyl-piperazin-1-yl)-phenyl]-[1,2,4]triazolo[1,5-a]pyridine-2,8-diamine], the IC50 worked out at 1310 nM at human JAK2 and 3000 nM at human FAK.

Consider `CCN1CCP(=O)(c2ccc(Nc3nc4c(-c5ccc(S(C)(=O)=O)cc5)cccn4n3)cc2)CC1` [Example 411, N-[4-(1-ethyl-4-oxido-1,4-azaphosphinan-4-yl)phenyl]-8-[4-(methylsulfonyl)phenyl][1,2,4]triazolo[1,5-a]pyridin-2-amine], for which the IC50 was found to be 1.62 nM on human JAK2 and 1860 nM on human FAK.

Regarding `CN1CCN(c2cccc(Nc3nc4c(NCc5cccc(S(C)(=O)=O)c5)cccn4n3)c2)CC1` [Example 161, N(8)-(3-Methanesulfonyl-benzyl)-N(2)-[3-(4-methyl-piperazin-1-yl)-phenyl]-[1,2,4]triazolo[1,5-a]pyridine-2,8-diamine], the IC50 at human JAK2 came out at 399 nM; at human FAK, 10000 nM.

Take `CS(=O)(=O)c1ccc(-c2cccn3nc(Nc4ccc(CN5CCOCC5)cc4)nc23)cc1` [Example 43, [8-(4-Methanesulfonyl-phenyl)-[1,2,4]triazolo[1,5-a]pyridin-2-yl]-(4-morpholin-4-ylmethyl-phenyl)-amine]: the half-maximal inhibitory concentration (IC50) at human JAK2 amounted to 2.2 nM; on human FAK it was 1170 nM.

On to `CCOc1ccc(C(F)(F)F)cc1-c1cccn2nc(Nc3ccc4c(c3)CCN(CC(=O)N(C)C)CC4)nc12` [Example 321, 2-{7-[8-(2-Ethoxy-5-trifluoromethyl-phenyl)-[1,2,4]triazolo[1,5-a]pyridin-2-ylamino]-1,2,4,5-tetrahydro-3-benzazepin-3-yl}-N,N-dimethyl-acetamide], for which the IC50 stood at 223 nM on human JAK2 and 1780 nM at human FAK.

As to `COc1ccccc1CNc1cccn2nc(Nc3ccnc(C)c3)nc12` [Example 404, N(8)-(2-Methoxy-benzyl)-N(2)-(2-methyl-pyridin-4-yl)-[1,2,4]triazolo[1,5-a]pyridine-2,8-diamine], the values for the IC50 on human JAK2 and at human FAK were 24.7 nM and 2580 nM, respectively.

For `CN1CCC(c2ccc(Nc3nc4c(Nc5ccccc5S(C)(=O)=O)cccn4n3)cc2)CC1` [Example 125, N(8)-(2-Methanesulfonyl-phenyl)-N(2)-[4-(1-methyl-piperidin-4-yl)-phenyl]-[1,2,4]triazolo[1,5-a]pyridine-2,8-diamine], the values for the IC50 at human JAK2 and at human FAK were 6.6 nM and 2050 nM, respectively.

For the molecule `c1cncc(CNc2cccn3nc(Nc4ccc(OCCN5CCCC5)cc4)nc23)c1` [Example 154, N(8)-Pyridin-3-ylmethyl-N(2)-[4-(2-pyrrolidin-1-yl-ethoxy)-phenyl]-[1,2,4]triazolo[1,5-a]pyridine-2,8-diamine], the IC50 on human JAK2 stood at 571 nM; on human FAK, 10000 nM.

On to `CN1CCN(c2ccc(Nc3nc4c(-c5ccc(S(C)(=O)=O)cc5)cc(F)cn4n3)cc2)CC1` [Example 106, [6-Fluoro-8-(4-methanesulfonyl-phenyl)-[1,2,4]triazolo[1,5-a]pyridin-2-yl]-[4-(4-methyl-piperazin-1-yl)-phenyl]-amine], for which the results for the IC50 on human JAK2 and at human FAK were 31.6 nM and 3000 nM, respectively.

As for `COc1ccc(C(F)(F)F)cc1-c1cccn2nc(Nc3ccc4c(c3)CCN(CC(=O)N(C)C)C4)nc12` [Example 338, 2-{6-[8-(2-Methoxy-5-trifluoromethyl-phenyl)-[1,2,4]-triazolo[1,5-a]pyridin-2-ylamino]-3,4-dihydro-1H-isoquinolin-2-yl}-N,N-dimethyl-acetamide], the IC50 at human JAK2 came out at 41.4 nM; at human FAK it was 1370 nM.

For `CN1CCN(c2ccc(Nc3nc4c(N(C)Cc5ccccc5N(C)S(C)(=O)=O)cccn4n3)cc2)CC1` [Example 185, N-Methyl-N-{2-[(methyl-{2-[4-(4-methyl-piperazin-1-yl)-phenylamino]-[1,2,4]triazolo[1,5-a]pyridin-8-yl}-amino)-methyl]-phenyl}-methanesulfonamide], the IC50 on human JAK2 is 51.1 nM; at human FAK, 62.5 nM.

As for `COCc1ccccc1-c1cccc2nc(Nc3ccc4c(c3)CCN(C(=O)OC(C)(C)C)CC4)nn12` [Example 226, 7-[5-(2-Methoxymethyl-phenyl)-[1,2,4]triazolo[1,5-a]pyridin-2-ylamino]-1,2,4,5-tetrahydro-benzo[d]azepine-3-carboxylic acid tert-butyl ester], the IC50 at human JAK2 was 650 nM; at human FAK, 10000 nM.

`COc1cccc(Nc2nc3c(-c4ccc(S(C)(=O)=O)cc4)cccn3n2)c1` [Example 40, [8-(4-Methanesulfonyl-phenyl)-[1,2,4]triazolo[1,5-a]pyridin-2-yl]-(3-methoxy-phenyl)-amine]: the IC50 at human JAK2 was determined as 1 nM; at human FAK it was 1360 nM.

Take `CN1CCN(c2ccc(Nc3nc4c(Nc5ccccc5S(C)(=O)=O)cccn4n3)cc2)CC1` [Example 72, N(8)-(2-Methanesulfonyl-phenyl)-N(2)-[4-(4-methyl-piperazin-1-yl)-phenyl]-[1,2,4]triazolo[1,5-a]pyridine-2,8-diamine]: the IC50 came out at 8.3 nM on human JAK2 and 380 nM on human FAK.

For the molecule `COc1cccc(CNc2cccn3nc(Nc4ccnc(C)c4)nc23)c1` [Example 397, N(8)-(3-Methoxy-benzyl)-N(2)-(2-methyl-pyridin-4-yl)-[1,2,4]triazolo[1,5-a]pyridine-2,8-diamine], the IC50 amounted to 592 nM at human JAK2 and 10000 nM on human FAK.

As for `COc1cccc(CNc2cccn3nc(Nc4ccc(OC)nc4)nc23)c1` [Example 394, N(8)-(3-Methoxy-benzyl)-N(2)-(6-methoxy-pyridin-3-yl)-[1,2,4]triazolo[1,5-a]pyridine-2,8-diamine], the half-maximal inhibitory concentration (IC50) on human JAK2 and at human FAK was 10000 nM in each case.

In the case of `CN1CCN(c2cccc(Nc3nc4c(-c5ccc(S(C)(=O)=O)cc5)cccn4n3)c2)C(=O)C1` [Example 204, 1-{3-[8-(4-Methanesulfonyl-phenyl)-[1,2,4]triazolo[1,5-a]pyridin-2-ylamino]-phenyl}-4-methyl-piperazin-2-one], the values for the IC50 at human JAK2 and on human FAK were 1.63 nM and 10000 nM, respectively.

Consider `COc1ccccc1-c1cccn2nc(Nc3ccc4c(c3)CCN(CC(=O)N(C)C)CC4)nc12` [Example 313, 2-{7-[8-(2-Methoxy-phenyl)-[1,2,4]triazolo[1,5-a]pyridine-2-ylamino]-1,2,4,5-tetrahydro-3-benzazepin-3-yl}-N,N-dimethyl-acetamide], for which the results for the IC50 on human JAK2 and on human FAK were 39.2 nM and 10000 nM, respectively.

On to `CN1CCN(c2ccc(Nc3nc4c(-c5ccc(C(F)(F)F)cc5)cccn4n3)cc2)CC1` [Example 64, [4-(4-Methyl-piperazin-1-yl)-phenyl]-[8-(4-trifluoromethyl-phenyl)-[1,2,4]triazolo[1,5-a]pyridin-2-yl]-amine], for which the values for the IC50 at human JAK2 and at human FAK were 3.1 nM and 1250 nM, respectively.

`CN1CCN(c2cccc(Nc3nc4c(-c5cccc(S(C)(=O)=O)c5)cccn4n3)c2)CC1` [Example 60, [8-(3-Methanesulfonyl-phenyl)-[1,2,4]triazolo[1,5-a]pyridin-2-yl]-[3-(4-methyl-piperazin-1-yl)-phenyl]-amine]: the IC50 at human JAK2 was 6.4 nM; at human FAK, 1260 nM.

Take `CC(C)S(=O)(=O)c1ccc(-c2cccn3nc(Nc4cccc(N5CCN(C)CC5)c4)nc23)cc1` [Example 53, [3-(4-Methyl-piperazin-1-yl)-phenyl]-{8-[4-(propane-2-sulfonyl)-phenyl]-[1,2,4]triazolo[1,5-a]pyridin-2-yl}-amine]: the results for the IC50 on human JAK2 and at human FAK were 1.3 nM and 865 nM, respectively.

For `CN(C)C(=O)CN1CCC(c2ccc(Nc3nc4c(-c5ccc[nH]c5=O)cccn4n3)cc2)CC1` [Example 275, N,N-Dimethyl-2(4-{4-[8-(2-oxo-1,2-dihydro-pyridin-3-yl)-[1,2,4]triazolo[1,5-a]pyridine-2-ylamino]-phenyl}-piperidin-1-yl)-acetamide], the IC50 was found to be 270 nM at human JAK2 and 2000 nM at human FAK.

For the molecule `CN1CCN(c2ccc(Nc3nc4c(-c5cccc(S(C)(=O)=O)c5)cccn4n3)cc2)CC1` [Example 59, [8-(3-Methanesulfonyl-phenyl)-[1,2,4]triazolo[1,5-a]pyridin-2-yl]-[4-(4-methyl-piperazin-1-yl)-phenyl]-amine], the 50% inhibitory concentration (IC50) on human JAK2 is 3.3 nM; on human FAK, 2590 nM.

Regarding `CC(C)(C)OC(=O)N1CCC(c2ccc(Nc3nc4c(-c5cnn(-c6ccc(F)cc6)c5)cccn4n3)cc2)CC1` [Example 280, 4-{4-[8-(1-(4-Fluoro-phenyl)-1H-pyrazol-4-yl)-[1,2,4]triazolo[1,5-a]pyridine-2-ylamino]-phenyl}-piperidine-1-carboxylic acid tert-butyl ester], the IC50 on human JAK2 stood at 1110 nM.

Broadly, the IC50 is the concentration that gives 50% inhibition.
